Where “and” joins values, the source holds several entries; their conditions need not be identical. Equal entries are not always repeated.
Tested on: patients with treatment-resistant major depressive disorder (TRD)
Assay: Phase 1/2 clinical trial of inhaled 5-MeO-DMT in TRD patients (12 mg, 18 mg, individualized dosing regimen IDR 6/12/18 mg)
Method: Patients were assigned to different groups. In the context of the present invention, the group who received a single, 12 mg dose and the group who underwent an intra-day individualized dosing regimen (IDR) that allowed for multiple, escalating doses (6 mg, 12 mg and 18 mg) within a single day, driven by the intensity of the patient-reported psychedelic experience are of interest.
The data gathered include the assessment of the treated patients against several scales including the Montgomery-Åsberg Depression Rating Scale (MADRS) and the Brief Psychiatric Rating Scale (BPRS).
This trial was designed in two parts. Part A was an open-label, single-arm, single-dose Phase 1 trial with two dose levels (12 mg (n=4) and 18 mg (n=4)). […] The primary endpoint of Part B was to assess the effects on the severity of depression, as assessed by the proportion of patients in remission on day seven after dosing, defined as a MADRS total score of less than or equal to 10.

Compound: COc1ccc2[nH]cc(CCN(C)C)c2c1 [5-MeO-DMT]
- MADRS Concentration Difficulties improvement (points) (12 mg n=4, 2 h): 9
- MADRS Concentration Difficulties percentage improvement (12 mg n=4, 2 h): 56% and 56.25%
- MADRS Concentration Difficulties summed score (12 mg n=4, 2 h): 7
- MADRS Inability to Feel improvement (points) (12 mg n=4, 2 h): 7
- MADRS Inability to Feel percentage improvement (12 mg n=4, 2 h): 44% and 43.75%
- MADRS Inability to Feel summed score (12 mg n=4, 2 h): 9
- MADRS Inner Tension improvement (points) (12 mg n=4, 2 h): 11
- MADRS Inner Tension percentage improvement (12 mg n=4, 2 h): 85% and 84.62%
- MADRS Inner Tension summed score (12 mg n=4, 2 h): 2
- MADRS Lassitude improvement (points) (12 mg n=4, 2 h): 6
- MADRS Lassitude percentage improvement (12 mg n=4, 2 h): 38% and 37.50%
- MADRS Lassitude summed score (12 mg n=4, 2 h): 10
- MADRS Pessimistic Thoughts improvement (points) (12 mg n=4, 2 h): 8
- MADRS Pessimistic Thoughts percentage improvement (12 mg n=4, 2 h): 50%
- MADRS Pessimistic Thoughts summed score (12 mg n=4, 2 h): 8
- MADRS Suicidal Thoughts improvement (points) (12 mg n=4, 2 h): 5
- MADRS Suicidal Thoughts percentage improvement (12 mg n=4, 2 h): 63% and 62.50%
- MADRS Suicidal Thoughts summed score (12 mg n=4, 2 h): 3
- BPRS Anxiety improvement (points) (12 mg n=4, 3 h): 14
- BPRS Anxiety percentage improvement (12 mg n=4, 3 h): 56%
- BPRS Anxiety summed score (12 mg n=4, 3 h): 11
- BPRS Blunted Affect improvement (points) (12 mg n=4, 3 h): 3
- BPRS Blunted Affect percentage improvement (12 mg n=4, 3 h): 27% and 27.27%
- BPRS Blunted Affect summed score (12 mg n=4, 3 h): 8
- BPRS Emotional Withdrawal improvement (points) (12 mg n=4, 3 h): 2
- BPRS Emotional Withdrawal percentage improvement (12 mg n=4, 3 h): 15% and 15.38%
- BPRS Emotional Withdrawal summed score (12 mg n=4, 3 h): 11
- BPRS Guilt Feelings improvement (points) (12 mg n=4, 3 h): 9
- BPRS Guilt Feelings percentage improvement (12 mg n=4, 3 h): 50%
- BPRS Guilt Feelings summed score (12 mg n=4, 3 h): 9
- BPRS Tension improvement (points) (12 mg n=4, 3 h): 5
- BPRS Tension percentage improvement (12 mg n=4, 3 h): 36% and 35.71%
- BPRS Tension summed score (12 mg n=4, 3 h): 9
- BPRS Anxiety improvement (points) (12 mg n=4, Day 1): 19
- BPRS Anxiety percentage improvement (12 mg n=4, Day 1): 76%
- BPRS Anxiety summed score (12 mg n=4, Day 1): 6
- BPRS Blunted Affect improvement (points) (12 mg n=4, Day 1): 5
- BPRS Blunted Affect percentage improvement (12 mg n=4, Day 1): 45% and 45.45%
- BPRS Blunted Affect summed score (12 mg n=4, Day 1): 6
- BPRS Emotional Withdrawal improvement (points) (12 mg n=4, Day 1): 5
- BPRS Emotional Withdrawal percentage improvement (12 mg n=4, Day 1): 38% and 38.46%
- BPRS Emotional Withdrawal summed score (12 mg n=4, Day 1): 8
- BPRS Guilt Feelings improvement (points) (12 mg n=4, Day 1): 13
- BPRS Guilt Feelings percentage improvement (12 mg n=4, Day 1): 72% and 72.22%
- BPRS Guilt Feelings summed score (12 mg n=4, Day 1): 5
- BPRS Tension improvement (points) (12 mg n=4, Day 1): 8
- BPRS Tension percentage improvement (12 mg n=4, Day 1): 57% and 57.14%
- BPRS Tension summed score (12 mg n=4, Day 1): 6
- MADRS Concentration Difficulties improvement (points) (12 mg n=4, Day 1): 14
- MADRS Concentration Difficulties percentage improvement (12 mg n=4, Day 1): 88% and 87.50%
- MADRS Concentration Difficulties summed score (12 mg n=4, Day 1): 2
- MADRS Inability to Feel improvement (points) (12 mg n=4, Day 1): 15
- MADRS Inability to Feel percentage improvement (12 mg n=4, Day 1): 94% and 93.75%
- MADRS Inability to Feel summed score (12 mg n=4, Day 1): 1
- MADRS Inner Tension improvement (points) (12 mg n=4, Day 1): 10
- MADRS Inner Tension percentage improvement (12 mg n=4, Day 1): 77% and 76.92%
- MADRS Inner Tension summed score (12 mg n=4, Day 1): 3
- MADRS Lassitude improvement (points) (12 mg n=4, Day 1): 16
- MADRS Lassitude percentage improvement (12 mg n=4, Day 1): 100%
- MADRS Lassitude summed score (12 mg n=4, Day 1): 0
- MADRS Pessimistic Thoughts improvement (points) (12 mg n=4, Day 1): 9
- MADRS Pessimistic Thoughts percentage improvement (12 mg n=4, Day 1): 56% and 56.25%
- MADRS Pessimistic Thoughts summed score (12 mg n=4, Day 1): 7
- MADRS Reduced Sleep improvement (points) (12 mg n=4, Day 1): 2
- MADRS Reduced Sleep percentage improvement (12 mg n=4, Day 1): 17% and 16.67%
- MADRS Reduced Sleep summed score (12 mg n=4, Day 1): 10
- MADRS Suicidal Thoughts improvement (points) (12 mg n=4, Day 1): 3
- MADRS Suicidal Thoughts percentage improvement (12 mg n=4, Day 1): 38% and 37.50%
- MADRS Suicidal Thoughts summed score (12 mg n=4, Day 1): 5
- BPRS Anxiety improvement (points) (12 mg n=4, Day 7): 19
- BPRS Anxiety percentage improvement (12 mg n=4, Day 7): 76%
- BPRS Anxiety summed score (12 mg n=4, Day 7): 6
- BPRS Blunted Affect improvement (points) (12 mg n=4, Day 7): 6
- BPRS Blunted Affect percentage improvement (12 mg n=4, Day 7): 55% and 54.55%
- BPRS Blunted Affect summed score (12 mg n=4, Day 7): 5
- BPRS Emotional Withdrawal improvement (points) (12 mg n=4, Day 7): 7
- BPRS Emotional Withdrawal percentage improvement (12 mg n=4, Day 7): 54% and 53.85%
- BPRS Emotional Withdrawal summed score (12 mg n=4, Day 7): 6
- BPRS Guilt Feelings improvement (points) (12 mg n=4, Day 7): 13
- BPRS Guilt Feelings percentage improvement (12 mg n=4, Day 7): 72% and 72.22%
- BPRS Guilt Feelings summed score (12 mg n=4, Day 7): 5
- BPRS Tension improvement (points) (12 mg n=4, Day 7): 8
- BPRS Tension percentage improvement (12 mg n=4, Day 7): 57% and 57.14%
- BPRS Tension summed score (12 mg n=4, Day 7): 6
- MADRS Concentration Difficulties improvement (points) (12 mg n=4, Day 7): 13
- MADRS Concentration Difficulties percentage improvement (12 mg n=4, Day 7): 81% and 81.25%
- MADRS Concentration Difficulties summed score (12 mg n=4, Day 7): 3
- MADRS Inability to Feel improvement (points) (12 mg n=4, Day 7): 15
- MADRS Inability to Feel percentage improvement (12 mg n=4, Day 7): 94% and 93.75%
- MADRS Inability to Feel summed score (12 mg n=4, Day 7): 1
- MADRS Inner Tension improvement (points) (12 mg n=4, Day 7): 8
- MADRS Inner Tension percentage improvement (12 mg n=4, Day 7): 62% and 61.54%
- MADRS Inner Tension summed score (12 mg n=4, Day 7): 5
- MADRS Lassitude improvement (points) (12 mg n=4, Day 7): 13
- MADRS Lassitude percentage improvement (12 mg n=4, Day 7): 81% and 81.25%
- MADRS Lassitude summed score (12 mg n=4, Day 7): 3
- MADRS Pessimistic Thoughts improvement (points) (12 mg n=4, Day 7): 8
- MADRS Pessimistic Thoughts percentage improvement (12 mg n=4, Day 7): 50%
- MADRS Pessimistic Thoughts summed score (12 mg n=4, Day 7): 8
- MADRS Reduced Sleep improvement (points) (12 mg n=4, Day 7): 6
- MADRS Reduced Sleep percentage improvement (12 mg n=4, Day 7): 50%
- MADRS Reduced Sleep summed score (12 mg n=4, Day 7): 6
- MADRS Suicidal Thoughts improvement (points) (12 mg n=4, Day 7): 1
- MADRS Suicidal Thoughts percentage improvement (12 mg n=4, Day 7): 13% and 12.50%
- MADRS Suicidal Thoughts summed score (12 mg n=4, Day 7): 7
- patients with MADRS remission (12 mg n=4, day seven): 50%
- mean MADRS change from baseline (12 mg, day seven): −21.0
- mean MADRS change from baseline, percent (12 mg, day seven): −65%
- further patients with MADRS clinical response (18 mg n=4, day seven): 25%
- patients with MADRS remission (18 mg n=4, day seven): 25%
- mean MADRS change from baseline, percent (18 mg, day seven): −41%
- patients maintaining remission (fraction) (Day 7): ⅞
